The results in this text go back to ChEMBL document CHEMBL4602602, “Structure-activity relationship (SAR) studies of synthetic glycogen synthase kinase-3β inhibitors: A critical review” (Eur J Med Chem, 2019).

What is called IC50 is the concentration needed to halve the response being measured. By EC50 is commonly meant the concentration that produces a half-maximal response.

T1 sequence (P49841 whole entry): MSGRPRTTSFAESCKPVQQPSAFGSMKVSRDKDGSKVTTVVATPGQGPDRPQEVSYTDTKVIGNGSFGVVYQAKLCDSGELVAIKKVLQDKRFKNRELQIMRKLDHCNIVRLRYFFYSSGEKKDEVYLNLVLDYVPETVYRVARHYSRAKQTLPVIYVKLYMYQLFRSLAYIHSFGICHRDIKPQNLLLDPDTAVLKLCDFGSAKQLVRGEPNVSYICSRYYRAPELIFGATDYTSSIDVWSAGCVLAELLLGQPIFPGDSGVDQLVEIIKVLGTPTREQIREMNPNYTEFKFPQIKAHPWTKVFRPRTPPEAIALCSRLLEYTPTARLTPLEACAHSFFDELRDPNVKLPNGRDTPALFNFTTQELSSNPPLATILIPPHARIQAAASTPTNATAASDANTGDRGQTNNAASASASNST

The first test concerns the target T1, Glycogen synthase kinase-3 beta (Homo sapiens, UniProt P49841). Put plainly: Inhibition of Glycogen synthase kinase-3 beta (unknown origin).
Conditions: not given
`CC(C)n1cc(C2=C(c3cccc(NC(=O)CF)c3)C(=O)NC2=O)c2cccnc21` yielded an IC50 of 17 nM.

With `FC(F)(F)c1nc2ccccc2n1Cc1nnc(SCc2cn(-c3cccnc3)nn2)o1`, half-maximal inhibition (IC50) was put at 150 nM.

Consider `COc1ccc(NC(=O)c2ccc(NC3=C(c4ccc(OC)cc4)C(=O)NC3=O)cc2)cc1`, for which half-maximal inhibition (IC50) was put at 90 nM.

In the case of `C=CC(=O)Nc1cccc(C2=C(c3cn(C)c4cc(OC)ccc34)C(=O)NC2=O)c1`, the IC50 was 690 nM.

For `Fc1ccccc1-n1cc(CSc2nnc(Cn3c(C(F)(F)F)nc4ccccc43)o2)nn1`, the IC50 worked out at 270 nM.

The molecule `CCc1ccc(-n2cc(CSc3nnc(Cn4c(C(F)(F)F)nc5ccccc54)o3)nn2)cc1` came in with a concentration for half-maximal inhibition (IC50) of 390 nM.

As for `COc1ccc(C2=C(Nc3ccc(C(=O)Nc4ccc(Cl)cc4)cc3)C(=O)NC2=O)cc1`, the IC50 came to 190 nM.

Consider `COc1ccc(/C=C/C(O)=C/C(=O)/C=C/c2ccc(OCc3ccccc3)cc2)cc1OC`, for which the IC50 was found to be 900 nM.

In turn, `C=CC(=O)Nc1cccc(C2=C(c3cn(C(C)C)c4ncccc34)C(=O)NC2=O)c1` returned an IC50 of 34 nM.

With `Cc1ccc2[nH]nc(C(=O)NCC3CCN(C(=O)Nc4ccccc4)CC3)c2c1`, it took 640 nM to reach half-maximal inhibition (IC50).

For the molecule `FC(F)(F)c1nc2ccccc2n1Cc1nnc(SCc2cn(-c3ccccc3)nn2)o1`, the IC50 came out at 320 nM.

In turn, `C=CC(=O)Nc1cccc(C2=C(c3cn(C)c4cc(F)ccc34)C(=O)NC2=O)c1` yielded an IC50 of 199 nM.

Take `COc1ccc(NC(=O)c2ccc(NC3=C(c4ccccc4)C(=O)NC3=O)cc2)cc1`: the IC50 is 120 nM.

Turning to `C=CC(=O)Nc1cccc(C2=C(c3cn(C)c4ccc(F)cc34)C(=O)NC2=O)c1`, the IC50 came to 150 nM.

`O=C(CSc1nnc(Cn2c(C(F)(F)F)nc3ccccc32)o1)Nc1ccc(F)cc1` gave an IC50 of 200 nM.

On to `COc1ccc(C2=C(Nc3ccc(C(=O)Nc4ccccc4)cc3)C(=O)NC2=O)cc1`, for which the IC50 was 170 nM.

`O=C(CSc1nnc(Cn2c(C(F)(F)F)nc3ccccc32)o1)Nc1ccccc1`: the IC50 was found to be 130 nM.

Test system in the next test: not listed separately
Put plainly: Activation of GSK-3 in HEK293 cells assessed as induction in beta-catenin-LEF/TCF regulated reporter gene transcription. It is filed as cell-based. The following applies: Homo sapiens. (A reporter such as luciferase makes a cellular process visible.)
Regarding `Cn1cc(C2=C(c3ccc(Cl)cc3Cl)C(=O)NC2=O)c2ccccc21` [SB-216763], the EC50 amounted to 3600 nM.

In another test the test system is HEK293. Put plainly: Activation of GSK-3 in HEK293 cells assessed as induction in beta-catenin-LEF/TCF regulated reporter gene transcription at 5 uM relative to control. It is filed as cell-based. As to conditions: Homo sapiens.
Regarding `Cn1cc(C2=C(c3ccc(Cl)cc3Cl)C(=O)NC2=O)c2ccccc21` [SB-216763], the fold change (FC) was determined as 2.5.

A further test deals with T1, Glycogen synthase kinase-3 beta. Put plainly: Inhibition of full length recombinant His-tagged human Glycogen synthase kinase-3 beta expressed in Baculovirus expression system.
Conditions: not given
As for `NCCCn1cc(C2=C(c3cccc4ccccc34)C(=O)NC2=O)c2cccnc21`, the half-inhibitory concentration (IC50) was 31 nM.

For the next test the target is unchanged. Briefly: Inhibition of Glycogen synthase kinase-3 beta (unknown origin) after 30 mins by Kinase-Glo assay.
Conditions: not given
In general terms: Kinase-Glo measures the ATP left after a reaction by luminescence.
`CN1C(=O)CC(c2ccccc2)N=C1SCc1cn(-c2ccc(C(C)(C)C)cc2)nn1` (stereo not given) came in with an IC50 of 1340 nM.

Turning to `Cc1ccc(-n2cc(CSC3=NC(c4ccccc4)CC(=O)N3C)nn2)cc1C` (stereo not given), the IC50 was 82 nM.

The molecule `CN1C(=O)CC(c2ccccc2)N=C1SCc1cn(-c2cccc([N+](=O)[O-])c2)nn1` (stereo not given) returned an IC50 of 153 nM.

The molecule `COc1ccccc1-n1cc(CSC2=NC(c3ccccc3)CC(=O)N2C)nn1` (stereo not given) displayed an IC50 of 1310 nM.

Consider `CN1C(=O)CC(c2ccccc2)N=C1SCc1cn(-c2ccccc2)nn1` (stereo not given), for which the IC50 came out at 916 nM.

In the case of `CCc1ccc(-n2cc(CSC3=NC(c4ccccc4)CC(=O)N3C)nn2)cc1` (stereo not given), half-maximal inhibition (IC50) required 94 nM.

`CN1C(=O)CC(c2ccccc2)N=C1SCc1cn(-c2ccccc2F)nn1` (stereo not given) showed an IC50 of 122 nM.

For a further test the target is unchanged. Briefly: Inhibition of Glycogen synthase kinase-3 beta in human SH-SY5Y cells after 2 hrs by ELISA. It is filed as cell-based.
Conditions: not given
In general terms: An ELISA detects its analyte on a solid surface through an enzyme-linked reagent.
Take `COc1ccc(-c2cc(=O)c3c(OC)c([C@H]4O[C@H](C(=O)N[C@H](C)C(F)(F)F)[C@@H](O)[C@H](O)[C@H]4O)c(OC)cc3o2)cc1OC`: the IC50 amounted to 2300 nM.

On to `COc1ccc(-c2cc(=O)c3c(OC)c([C@H]4O[C@H](C(=O)N[C@@H](C)C(F)(F)F)[C@@H](O)[C@H](O)[C@H]4O)c(OC)cc3o2)cc1OC`, for which half-maximal inhibition (IC50) was put at 590 nM.

As for `COc1ccc(-c2cc(=O)c3c(OC)c([C@H]4O[C@H](C(=O)O)[C@@H](O)[C@H](O)[C@H]4O)c(OC)cc3o2)cc1OC`, the half-inhibitory concentration (IC50) turned out to be 237000 nM.

Regarding `COc1ccc(-c2cc(=O)c3c(OC)c([C@H]4O[C@H](CO)[C@@H](O)[C@H](O)[C@H]4O)c(OC)cc3o2)cc1OC`, the IC50 is 239000 nM.

Target in the next test: not listed separately
Briefly: Inhibition of full length recombinant His-tagged human Glycogen synthase kinase-3 beta expressed in Baculovirus expression system.
Conditions: not given
For the molecule `COc1ccccc1C1=C(c2cn(CCCO)c3ncccc23)C(=O)NC1=O`, the IC50 was found to be 4 nM.

Consider `O=C1NC(=O)C(c2cn(CCCO)c3ncccc23)=C1c1ccccc1Cl`, for which the IC50 stood at 10 nM.

As to `O=C1NC(=O)C(c2cn(CCCO)c3ncccc23)=C1c1ccccc1C(F)(F)F`, the IC50 amounted to 14 nM.

On to `CN(C)CCCn1cc(C2=C(c3cccc4ccccc34)C(=O)NC2=O)c2cccnc21`, for which the 50% inhibitory concentration (IC50) stood at 140 nM.
